According to patent US8859580B2 (Boehringer Ingelheim International GmbH, priority 2007, dated 2014):

Target: T1, 11β-HSD1 (Homo sapiens, UniProt P28845)
T1 construct: detecting cortisol generated from cortisterone by human liver microsomes; from tissue; host or cells: human liver microsomes
Experiment: In vitro inhibition of 11β-HSD1, HTRF detection of cortisol generated from cortisone by human liver microsomes
Format: biochemical
Settings: 11β-HSD IC50 (nM), 1 hour at 37° C., pH 6.0, NADPH 200 μM, cortisone 80 nM, inhibition relative to carbenoxolone signal
Procedure, shortened: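 Cortisol formed from cortisone by human liver microsomes quantified by competitive HTRF immunoassay (XL665-cortisol, Eu-cryptate anti-cortisol antibody), 2 h detection, Em665/Em615 ratio converted via cortisol calibration curve. Percent inhibition relative to carbenoxolone signal; IC50 from curves.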

T1 sequence (P28845 whole entry): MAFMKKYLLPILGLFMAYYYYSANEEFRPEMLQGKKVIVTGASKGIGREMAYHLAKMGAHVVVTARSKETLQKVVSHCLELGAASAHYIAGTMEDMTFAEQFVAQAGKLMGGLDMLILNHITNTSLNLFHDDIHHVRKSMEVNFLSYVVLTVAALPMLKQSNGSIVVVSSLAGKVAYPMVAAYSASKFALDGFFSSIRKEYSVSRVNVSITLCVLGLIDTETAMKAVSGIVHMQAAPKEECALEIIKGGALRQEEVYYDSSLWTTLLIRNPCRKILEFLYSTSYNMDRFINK

Compound | IC50 [nM]
CC1(C)[C@H]2Cc3c(O)cccc3[C@]1(C)CCN2C(=O)c1ccc(Cn2cncn2)cc1 [Example 131, [(2R,6S)-10-Hydroxy-6,11,11-trimethyl-1,2,5,6-tetrahydro-4H-2,6-methano-benzo[d]azocin-3-yl]-(4-[1,2,4]triazol-1-ylmethyl-phenyl)-methanone] | 361
CC12CCN(C(=O)c3ccc4nc[nH]c4c3)C(Cc3cc(O)ccc31)C2(C)C (stereo not drawn) [Example 59, (3H-Benzoimidazol-5-yl)-(9-hydroxy-6,11,11-trimethyl-1,2,5,6-tetrahydro-4H-2,6-methano-benzo[d]azocin-3-yl)-methanone] | 36
CC1(C)[C@H]2Cc3c(O)cccc3[C@]1(C)CCN2C(=O)c1ccnn1-c1ccccc1 [Example 216, [(2R,6S)-10-Hydroxy-6,11,11-trimethyl-1,2,5,6-tetrahydro-4H-2,6-methano-benzo[d]azocin-3-yl]-(2-phenyl-2H-pyrazol-3-yl)-methanone] | 1720
CC(O)(c1ccc(C(=O)N2CC[C@@]3(C)c4cccc(O)c4C[C@@H]2C3(C)C)cc1)C(F)(F)F (stereo partly drawn) [Example 16, [(2R,6S)-10-Hydroxy-6,11,11-trimethyl-1,2,5,6-tetrahydro-4H-2,6-methano-benzo[d]azocin-3-yl]-[4-(2,2,2-trifluoro-1-hydroxy-1-methyl-ethyl)-phenyl]-methanone] | 360
C[C@@H]1C[C@]2(C)C[C@@H](Cc3ccccc32)N1C(=O)c1ccc2nc[nH]c2c1 (racemic) [Example 253, (3H-Benzoimidazol-5-yl)-(4,6-dimethyl 1,2,5,6-tetrahydro-4H-2,6-methano-benzo[d]azocin-3-yl)-methanone] | 78
CCCC12CCN(C(=O)c3ccc4nc[nH]c4c3)C(Cc3ccc(O)cc31)C2 (stereo not drawn) [Example 88, (3H-Benzoimidazol-5-yl)-(8-hydroxy-6-propyl-1,2,5,6-tetrahydro-4H-2,6-methano-benzo[d]azocin-3-yl)-methanone] | 171
CC1(C)[C@H]2Cc3c(O)cccc3[C@]1(C)CCN2C(=O)c1ccc(CN)cc1 [Example 117, (4-Aminomethyl-phenyl)-[(2R,6S)-10-hydroxy-6,11,11-trimethyl-1,2,5,6-tetrahydro-4H-2,6-methano-benzo[d]azocin-3-yl]-methanone] | 1420
C[C@@H]1[C@H]2Cc3ccc(-c4ccncc4)cc3[C@]1(C)CCN2C(=O)c1ccc2nc[nH]c2c1 [Example 251, (3H-Benzoimidazol-5-yl)-[(2R,6R,11S)-6,11-dimethyl-8-pyridin-4-yl-1,2,5,6-tetrahydro-4H-2,6-methano-benzo[d]azocin-3-yl]-methanone] | 66
CC1(C)[C@H]2Cc3c(O)cccc3[C@]1(C)CCN2C(=O)c1ccc(C(N)=O)cc1 [Example 3, 4-[(2R,6S)-10-Hydroxy-6,11,11-trimethyl-1,2,5,6-tetrahydro-4H-2,6-methano-benzo[d]azocine-3-carbonyl]benzamide] | 85
CC1(C)C2Cc3ccc(O)cc3C1(c1ccccc1)CCN2C(=O)c1ccc2nc[nH]c2c1 (stereo not drawn) [Example 150, (3H-Benzoimidazol-5-yl)-(8-hydroxy-11,11-dimethyl-6-phenyl-1,2,5,6-tetrahydro-4H-2,6-methano-benzo[d]azocin-3-yl)-methanone] | 438
CC(O)c1ccc2c(c1)[C@]1(C)CCN(C(=O)c3ccc4nc[nH]c4c3)[C@H](C2)C1(C)C (stereo partly drawn) [Example 211, (3H-Benzoimidazol-5-yl)-[(2R,6S)-8-(1-hydroxy-ethyl)-6,11,11-trimethyl-1,2,5,6-tetrahydro-4H-2,6-methano-benzo[d]azocin-3-yl]-methanone] | 31
Cc1nnc(-c2ccc3c(c2)[C@]2(C)CCN(C(=O)c4ccc5nc[nH]c5c4)[C@H](C3)[C@H]2C)n1C [Example 336, (3H-Benzoimidazol-5-yl)-[(2R,6R,11S)-8-(4,5-dimethyl-4H-[1,2,4]triazol-3-yl)-6,11-dimethyl-1,2,5,6-tetrahydro-4H-2,6-methano-benzo[d]azocin-3-yl]-methanone] | 198
C[C@@H]1[C@H]2Cc3cc4nc(C5CC5)oc4cc3[C@]1(C)CCN2C(=O)c1ccc2nc[nH]c2c1 [Example 311, (3H-Benzoimidazol-5-yl)-[(6R,10R,12S)-2-cyclopropyl-5,6,7,8,9,10-hexahydro-10,12-dimethyl-6,10-methano-oxazolo[5,4-i][3]benzazocin-7-yl]-methanone] | 424
Cc1nc2cc3c(cc2n1C)[C@]1(C)CCN(C(=O)c2ccc4nc[nH]c4c2)[C@H](C3)C1(C)C [Example 242, (3H-Benzoimidazol-5-yl)-[(6R,10S)-5,6,7,8,9,10-hexahydro-1,2,10,12,12-pentamethyl-6,10-methano-imidazo[5,4-i][3]benzazocin-7-yl]-methanone] | 547
Cc1cc(C(=O)N2CC[C@@]3(C)c4cccc(O)c4C[C@@H]2C3(C)C)cc2nc[nH]c12 [Example 225, [(2R,6S)-10-Hydroxy-6,11,11-trimethyl-1,2,5,6-tetrahydro-4H-2,6-methano-benzo[d]azocin-3-yl]-(7-methyl-1H-benzoimidazol-5-yl)-methanone] | 98
CC1(C)[C@H]2Cc3c(C(=O)O)cccc3[C@]1(C)CCN2C(=O)c1ccc2nc[nH]c2c1 [Example 152, (2R,6S)-3-(3H-Benzoimidazole-5-carbonyl)-6,11,11-trimethyl-1,2,3,4,5,6-hexahydro-2,6-methano-benzo[d]azocine-10-carboxylic acid] | 4670
CC1(C)[C@H]2Cc3ccccc3[C@]1(C)CCN2C(=O)c1ccc2ccccc2c1 [Example 282, Naphthalen-2-yl-[(2R,6S)-6,11,11-trimethyl-1,2,5,6-tetrahydro-4H-2,6-methano-benzo[d]azocin-3-yl]-methanone] | 409
CC1(C)[C@H]2Cc3cc(C#N)ccc3[C@]1(C)CCN2C(=O)c1ccc2nc[nH]c2c1 [Example 206, (2R,6S)-3-(3H-Benzoimidazole-5-carbonyl)-6,11,11-trimethyl-1,2,3,4,5,6-hexahydro-2,6-methano-benzo[d]azocine-9-carbonitrile] | 47
CC1(C)[C@H]2Cc3c(O)cccc3[C@]1(C)CCN2C(=O)c1coc2ccccc12 [Example 198, Benzofuran-3-yl-[(2R,6S)-10-hydroxy-6,11,11-trimethyl-1,2,5,6-tetrahydro-4H-2,6-methano-benzo[d]azocin-3-yl]-methanone] | 435
CC(=O)c1ccc(C(=O)N2CC[C@@]3(C)c4ccccc4C[C@@H]2C3(C)C)cc1 [Example 299] | 352
CC1(C)[C@H]2Cc3ccccc3[C@]1(C)CCN2C(=O)c1cc(Cl)c(N)c(Cl)c1 [Example 283, (4-Amino-3,5-dichloro-phenyl)-[(2R,6S)-6,11,11-trimethyl-1,2,5,6-tetrahydro-4H-2,6-methano-benzo[d]azocin-3-yl]-methanone] | 55
Cc1cc(C(=O)N2CC[C@@]3(C)c4cccc(O)c4C[C@@H]2C3(C)C)n(C)n1 [Example 215, (2,5-Dimethyl-2H-pyrazol-3-yl)-[(2R,6S)-10-hydroxy-6,11,11-trimethyl-1,2,5,6-tetrahydro-4H-2,6-methano-benzo[d]azocin-3-yl]-methanone] | 1730
CC1(C)[C@H]2Cc3cc4nn[nH]c4cc3[C@]1(C)CCN2C(=O)c1ccc2nc[nH]c2c1 [Example 265, (3H-Benzoimidazol-5-yl)-[(6R,10S)-5,6,7,8,9,10-hexahydro-10,12,12-trimethyl-6,10-methano-1H-triazolo[5,4-i][3]benzazocin-7-yl]-methanone] | 22
CC1(C)[C@H]2Cc3c(O)cccc3[C@]1(C)CCN2C(=O)c1c[nH]c2ccc(Cl)cc12 [Example 196, (5-Chloro-1H-indol-3-yl)-[(2R,6S)-10-hydroxy-6,11,11-trimethyl-1,2,5,6-tetrahydro-4H-2,6-methano-benzo[d]azocin-3-yl]-methanone] | 781
CN(C)S(=O)(=O)c1ccc2c(c1)C[C@H]1N(C(=O)c3ccc4nc[nH]c4c3)CC[C@]2(C)C1(C)C [Example 237, (2R,6S)-3-(3H-Benzoimidazole-5-carbonyl)-6,11,11-trimethyl-1,2,3,4,5,6-hexahydro-2,6-methano-benzo[d]azocine-9-sulfonic acid dimethylamide] | 916
Cn1cnc2ccc(C(=O)N3CC[C@@]4(C)c5cccc(O)c5C[C@@H]3C4(C)C)cc21 [Example 81, [(2R,6S)-10-Hydroxy-6,11,11-trimethyl-1,2,5,6-tetrahydro-4H-2,6-methano-benzo[d]azocin-3-yl]-(3-methyl-3H-benzoimidazol-5-yl)-methanone] | 463
CC1(O)CCN(Cc2ccc(C(=O)N3CC[C@@]4(C)c5cccc(O)c5C[C@@H]3C4(C)C)cc2)CC1 [Example 185, [4-(4-Hydroxy-4-methyl-piperidin-1-ylmethyl)-phenyl]-[(2R,6S)-10-hydroxy-6,11,11-trimethyl-1,2,5,6-tetrahydro-4H-2,6 methano-benzo[d]azocin-3-yl]-methanone] | 5370
COC(=O)c1cc(F)cc(C(=O)N2CC[C@@]3(C)c4cccc(O)c4C[C@@H]2C3(C)C)c1 [Example 43, 3-Fluoro-5-[(2R,6S)-10-hydroxy-6,11,11-trimethyl-1,2,5,6-tetrahydro-4H-2,6-methano-benzo[d]azocine-3-carbonyl]-benzoic acid methyl ester] | 1760
COc1cccc(C(=O)N2CC[C@@]3(C)c4cccc(O)c4C[C@@H]2C3(C)C)c1 [Example 11, [(2R,6S)-10-Hydroxy-6,11,11-trimethyl-1,2,5,6-tetrahydro-4H-2,6-methano-benzo[d]azocin-3-yl]-(3-methoxy-phenyl)-methanone] | 530
CC1(C)[C@H]2Cc3c(O)cccc3[C@]1(C)CCN2C(=O)c1ccc(C(=O)N2CCCCC2)cc1 [Example 169, [(2R,6S)-10-Hydroxy-6,11,11-trimethyl-1,2,5,6-tetrahydro-4H-2,6-methano-benzo[d]azocin-3-yl]-[4-(piperidine-1-carbonyl)-phenyl]-methanone] | 950
